Reference: ChEMBL document CHEMBL1201862, “PubChem BioAssay data set” (2004)
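Cultured in 96-well plates, cells were exposed to test compound for 48 hours across five concentrations. The concentration for 50% growth inhibition is given as GI50.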 Active and inactive are the calls of the source. Rule as the data show it: active = GI50 up to about 1.1 µM and inactive = higher.

Key:
Experiment in all cases: NCI tumour cell line growth inhibition, 48 h
[1] = tested on: 786-0
[2] = tested on: MOLT-4
[3] = tested on: K562
[4] = tested on: SK-OV-3
[5] = tested on: NCI-H23
[6] = tested on: A498
[7] = tested on: M14
[8] = tested on: SW-620
[9] = tested on: OVCAR-5
[10] = tested on: SN12C
[11] = tested on: SK-MEL-5
[12] = tested on: NCI-H522
[13] = tested on: ACHN
[14] = tested on: UACC-62
[15] = tested on: IGROV-1
[16] = tested on: SNB-75

Measured: GI50

Cc1ccc(NC(=O)CCC(=O)C2Cc3ccccc3C2=O)cc1C (centres undefined)
inactive: [1] > 100 µM | [2] > 100 µM | [3] > 100 µM | [4] > 100 µM | [5] > 100 µM | [6] > 100 µM | [7] > 100 µM | [8] > 100 µM | [9] > 100 µM | [10] > 100 µM | [11] > 100 µM | [12] > 100 µM | [13] > 100 µM | [14] > 100 µM | [15] > 100 µM | [16] > 100 µM

CCC12CCCN(Cc3ccccc3)C1c1c(n(C)c3ccccc13)[C@H](C(=O)OC)C2 (some centres undefined)
inactive: [1] > 239 µM | [2] > 239 µM | [3] > 239 µM | [4] > 239 µM | [5] > 239 µM | [8] 211 µM | [9] 147 µM | [10] 224 µM | [11] 142 µM | [12] 122 µM | [13] > 239 µM | [14] > 239 µM | [15] > 239 µM

COc1ccc2c3c([nH]c2c1CC=C(C)C)C(=O)C=C(C)C3=O
inactive: [1] > 25 µM | [2] 18.5 µM | [3] > 25 µM | [4] > 25 µM | [5] > 25 µM | [7] > 25 µM | [8] > 25 µM | [9] > 25 µM | [10] > 25 µM | [11] > 25 µM | [12] 11.8 µM | [13] > 25 µM | [14] > 25 µM | [15] > 25 µM | [16] 14.4 µM

O=C(Nc1cccc2c1C(=O)c1c(NC(=O)c3ccccc3)ccc(Nc3cccc4c3C(=O)c3ccccc3C4=O)c1C2=O)c1ccccc1
inactive: [1] > 100 µM | [2] > 100 µM | [3] > 100 µM | [4] > 100 µM | [6] > 100 µM | [7] > 100 µM | [8] > 100 µM | [10] > 100 µM | [11] > 100 µM | [12] > 100 µM | [13] > 100 µM | [14] > 100 µM | [15] > 100 µM | [16] 70.3 µM

Cc1cc(C(C)C)cc(=O)c(O)c1
inactive: [1] > 100 µM | [2] > 100 µM | [4] > 100 µM | [6] > 100 µM | [7] > 100 µM | [8] > 100 µM | [9] > 100 µM | [10] > 100 µM | [11] > 100 µM | [12] > 100 µM | [13] > 100 µM | [14] > 100 µM | [15] > 100 µM | [16] > 100 µM

CCOC(=O)/C([O-])=C(\C(=O)OCC)[n+]1c(C)n(C)c2ccccc21
inactive: [1] > 100 µM | [2] > 100 µM | [3] > 100 µM | [4] > 100 µM | [5] > 100 µM | [6] > 100 µM | [7] > 100 µM | [8] > 100 µM | [9] > 100 µM | [11] > 100 µM | [12] > 100 µM | [14] > 100 µM | [15] > 100 µM | [16] > 100 µM

CCSC(=O)C1(C)OC2CCCCC2C1=O (centres undefined)
inactive: [1] > 100 µM | [2] > 100 µM | [3] > 100 µM | [4] > 100 µM | [6] > 100 µM | [7] > 100 µM | [8] > 100 µM | [10] > 100 µM | [11] > 100 µM | [12] > 100 µM | [13] > 100 µM | [14] > 100 µM | [15] > 100 µM | [16] > 100 µM

O=C1CC(c2c[nH]c3ccccc23)C(=O)N1c1ccccc1 (centres undefined)
inactive: [1] > 100 µM | [2] > 100 µM | [3] > 100 µM | [4] > 100 µM | [5] > 100 µM | [6] > 100 µM | [7] > 100 µM | [8] > 100 µM | [9] > 100 µM | [11] > 100 µM | [13] > 100 µM | [14] > 100 µM | [15] > 100 µM | [16] > 100 µM

Cn1cnc([N+](=O)[O-])c1Sc1nnc(-c2ccc(Cl)cc2)n1C
inactive: [1] > 10 µM | [2] 6.78 µM | [3] 10.7 µM | [4] 51.2 µM | [5] 16.6 µM | [6] 27.8 µM | [7] 13.6 µM | [8] 11.3 µM | [9] 20.5 µM | [10] 14.7 µM | [12] 3.17 µM | [13] 15.1 µM | [14] 15.5 µM | [15] 16.7 µM | [16] 17.7 µM
